Consider 18 compounds from ChEMBL document CHEMBL1914419, “Discovery of aryloxy tetramethylcyclobutanes as novel androgen receptor antagonists” (J Med Chem, 2011).

A value given as a limit tells only on which side of the number the result lay.

Broadly, the microsomal CLint is the capacity of the preparation to metabolise the compound, expressed as a volume cleared per time. Read a high microsomal CLint as faster metabolism.

This series in a line: Intrinsic clearance in human liver microsomes. In kind it is ADME, Microsome. On the technique in general: Microsomes from liver hold many membrane-bound enzymes, among them those of drug oxidation.
As to `Cc1cc(C(=O)N[C@H]2C(C)(C)[C@H](Oc3ccc(C#N)c(Cl)c3)C2(C)C)nn1C`, the microsomal CLint was 40 µL/min/mg.

For `CC(=O)N[C@H]1C(C)(C)[C@H](Oc2ccc(C#N)c(C#N)c2)C1(C)C`, the microsomal CLint was under 7 µL/min/mg.

As for `CC(=O)N[C@H]1C(C)(C)[C@H](Oc2ccc(C#N)c(Cl)c2)C1(C)C`, the intrinsic metabolic clearance (microsomal CLint) is under 8 µL/min/mg.

As to `CC(=O)N[C@H]1C(C)(C)[C@H](Oc2ccc(C#N)c(C)c2)C1(C)C`, the microsomal CLint is under 7 µL/min/mg.

`CC(=O)N[C@H]1C(C)(C)[C@H](Oc2ccc(C#N)c(C(F)(F)F)c2)C1(C)C` showed a microsomal CLint of 11 µL/min/mg.

Compound `CC(=O)N[C@H]1C(C)(C)[C@H](Oc2ccc(C#N)cc2Cl)C1(C)C` showed a microsomal CLint of 17.5 µL/min/mg.

On to `CC1(C)[C@H](NC(=O)c2cnccn2)C(C)(C)[C@H]1Oc1ccc(C#N)c(Cl)c1`, for which the microsomal CLint was found to be 9.8 µL/min/mg.

The compound `CC1(C)[C@H](NC(=O)c2cn[nH]c2)C(C)(C)[C@H]1Oc1ccc(C#N)c(Cl)c1` displayed a microsomal CLint of under 8 µL/min/mg.

In turn, `Cn1cc(C(=O)N[C@H]2C(C)(C)[C@H](Oc3ccc(C#N)c(Cl)c3)C2(C)C)cn1` registered a microsomal CLint of 9 µL/min/mg.

Compound `Cc1nnc(C(=O)N[C@H]2C(C)(C)[C@H](Oc3ccc(C#N)c(Cl)c3)C2(C)C)o1` gave a microsomal CLint of 29 µL/min/mg.

The compound `CC1(C)[C@H](NC(=O)c2cnc3ncccn23)C(C)(C)[C@H]1Oc1ccc(C#N)c(Cl)c1` had a microsomal CLint of under 10 µL/min/mg.

The compound `Cc1nc2ncccn2c1C(=O)N[C@H]1C(C)(C)[C@H](Oc2ccc(C#N)c(Cl)c2)C1(C)C` came in with a microsomal CLint of 19 µL/min/mg.

The compound `COCCn1ccc(C(=O)N[C@H]2C(C)(C)[C@H](Oc3ccc(C#N)c(Cl)c3)C2(C)C)n1` had a microsomal CLint of 57 µL/min/mg. This microsomal CLint is about 3-fold higher than that of the compound before.

Compound `CC1(C)[C@H](NC(=O)c2ccn(CCO)n2)C(C)(C)[C@H]1Oc1ccc(C#N)c(Cl)c1` registered a microsomal CLint of under 12 µL/min/mg.

Compound `CC1(C)[C@H](NC(=O)c2cnn(CCO)c2)C(C)(C)[C@H]1Oc1ccc(C#N)c(Cl)c1` gave a microsomal CLint of 11 µL/min/mg.

In turn, `CC1(C)[C@H](NC(=O)c2ccn(CCC#N)n2)C(C)(C)[C@H]1Oc1ccc(C#N)c(Cl)c1` displayed a microsomal CLint of 25 µL/min/mg.

Compound `CN(C)C(=O)Cn1ccc(C(=O)N[C@H]2C(C)(C)[C@H](Oc3ccc(C#N)c(Cl)c3)C2(C)C)n1` yielded a microsomal CLint of 15 µL/min/mg.

On to `Cc1nc(O[C@H]2C(C)(C)[C@H](NC(=O)c3cnc4ncccn34)C2(C)C)ccc1C#N`, for which the microsomal CLint was under 8 µL/min/mg.
